In this test the target is T1, KRAS G12C 1-169, his-tagged protein, GDP-loaded (Homo sapiens, UniProt P01116, G12C).
T1 construct: KRAS G12C 1-169, his-tagged protein, GDP-loaded
Nature of the test: Covalent binding (% modification) to KRAS G12C by mass spectrometry. Further: test concentration or dose not given here. Particulars: covalent binding to KRAS G12C after a ten minute incubation period.

As to `C=CC(=O)N1[C@H](C)CN(c2nc(N3CC(N(C)C)C3)nc3c(F)c(-c4c(C)ccc5cn[nH]c45)c(Cl)cc23)C[C@@H]1C` [Compound 27, 1-((2R,6S)-4-(6-chloro-2-(3-(dimethylamino)azetidin-1-yl)-8-fluoro-7-(6-methyl-1H-indazol-7-yl)quinazolin-4-yl)-2,6-dimethyl-piperazin-1-yl) prop-2-en-1-one], the Binding % result is “++ (++ indicates binding activity from 50 to 90%)”.

For the compound `C=CC(=O)N1CCN(c2nc(OCCN(CC)CC)nc3c(F)c(-c4c(C)ccc5cn[nH]c45)c(Cl)cc23)[C@@H](C)C1` [Compound 28, 1-((3S)-4-(6-chloro-2-(2-(diethylamino)ethoxy)-8-fluoro-7-(6-methyl-1H-indazol-7-yl)quinazolin-4-yl)-3-methyl-piperazin-1-yl) prop-2-en-1-one], the Binding % result is listed as “+++ (+++ indicates binding activity greater than 90%)”.

`C=CC(=O)N1[C@H](C)CN(c2nc(OCCN(CC)CC)nc3c(F)c(-c4c(O)cccc4F)c(Cl)cc23)C[C@@H]1C` [Compound 29, 1-((2R,6S)-4-(6-chloro-2-(2-(diethylamino)ethoxy)-8-fluoro-7-(2-fluoro-6-hydroxyphenyl)quinazolin-4-yl)-2,6-dimethyl-piperazin-1-yl) prop-2-en-1-one]: the Binding % entry is recorded as “++ (++ indicates binding activity from 50 to 90%)”.

As for `C=CC(=O)N1[C@H](C)CN(c2nc(OCCN3CC(F)(F)C3)nc3c(F)c(-c4c(C)ccc5cn[nH]c45)c(Cl)cc23)C[C@@H]1C` [Compound 30, 1-((2R,6S)-4-(6-chloro-2-(2-(3,3-difluoroazetidin-1-yl)ethoxy)-8-fluoro-7-(6-methyl-1H-indazol-7-yl)quinazolin-4-yl)-2,6-dimethyl-piperazin-1-yl) prop-2-en-1-one], the Binding % entry was “++ (++ indicates binding activity from 50 to 90%)”.

`C=CC(=O)N1C[C@@H](C)N(c2nc(N)nc3c(F)c(-c4c(C)ccc5cn[nH]c45)c(Cl)cc23)[C@@H](C)C1` [Compound 31, 1-((3S,5R)-4-(2-amino-6-chloro-8-fluoro-7-(6-methyl-1H-indazol-7-yl)quinazolin-4-yl)-3,5-dimethyl-piperazin-1-yl) prop-2-en-1-one]: the Binding % entry was “++ (++ indicates binding activity from 50 to 90%)”.

Regarding `C=CC(=O)N1[C@H](C)CN(c2nc(OCCN3CC(F)(F)C3)nc3c(F)c(-c4c(O)cccc4F)c(Cl)cc23)C[C@@H]1C` [Compound 32, 1-((2R,6S)-4-(6-chloro-2-(2-(3,3-difluoroazetidin-1-yl)ethoxy)-8-fluoro-7-(2-fluoro-6-hydroxyphenyl)quinazolin-4-yl)-2,6-dimethyl-piperazin-1-yl) prop-2-en-1-one], the Binding % entry is given as “+++ (+++ indicates binding activity greater than 90%)”.

`C=CC(=O)N1[C@H](C)CN(c2nc(NC3CCN(C4CC4)CC3)nc3c(F)c(-c4c(C)ccc5[nH]ncc45)c(Cl)cc23)C[C@@H]1C` [Compound 33, 1-((2R,6S)-4-(6-chloro-2-((1-cyclopropyl-piperidin-4-yl)amino)-8-fluoro-7-(5-methyl-1H-indazol-4-yl)quinazolin-4-yl)-2,6-dimethyl-piperazin-1-yl) prop-2-en-1-one]: the Binding % entry is on record as “++ (++ indicates binding activity from 50 to 90%)”.

In the case of `C=CC(=O)N1CCN(c2nc(N3CC(O)C3)nc3c(F)c(-c4c(O)cccc4F)c(Cl)cc23)[C@@H](C)C1` [Compound 34, 1-((3S)-4-(6-chloro-8-fluoro-7-(2-fluoro-6-hydroxyphenyl)-2-(3-hydroxy-azetidin-1-yl)quinazolin-4-yl)-3-methyl-piperazin-1-yl) prop-2-en-1-one], the Binding % result was “++ (++ indicates binding activity from 50 to 90%)”.

For `C=CC(=O)N1[C@H](C)CN(c2nc(N3CC(O)C3)nc3c(F)c(-c4c(O)cccc4F)c(Cl)cc23)C[C@@H]1C` [Compound 35, 1-((2R,6S)-4-(6-chloro-8-fluoro-7-(2-fluoro-6-hydroxyphenyl)-2-(3-hydroxy-azetidin-1-yl)quinazolin-4-yl)-2,6-dimethyl-piperazin-1-yl) prop-2-en-1-one], the Binding % entry was “++ (++ indicates binding activity from 50 to 90%)”.

With `C=CC(=O)N1[C@H](C)CN(c2nc(OCCc3ccccn3)nc3c(F)c(-c4c(O)cccc4F)c(Cl)cc23)C[C@@H]1C` [Compound 36, 1-((2R,6S)-4-(6-chloro-8-fluoro-7-(2-fluoro-6-hydroxyphenyl)-2-(2-(pyridin-2-yl)ethoxy)quinazolin-4-yl)-2,6-dimethyl-piperazin-1-yl) prop-2-en-1-one], the Binding % result is reported as “++ (++ indicates binding activity from 50 to 90%)”.

On to `C=CC(=O)N1[C@H](C)CN(c2nc(OC3CCN(C4CC4)CC3)nc3c(F)c(-c4c(C)ccc5[nH]ncc45)c(Cl)cc23)C[C@@H]1C` [Compound 37, 1-((2S,6R)-4-(6-chloro-2-((1-cyclopropyl-piperidin-4-yl)oxy)-8-fluoro-7-(5-methyl-1H-indazol-4-yl)quinazolin-4-yl)-2,6-dimethyl-piperazin-1-yl) prop-2-en-1-one], for which the Binding % entry is “++ (++ indicates binding activity from 50 to 90%)”.

For the compound `C=CC(=O)N1C[C@H](C)N(c2nc(OCCN3CC(F)(F)C3)nc3c(F)c(-c4c(O)cccc4F)c(Cl)cc23)C[C@H]1C` [Compound 38, 1-((2R,5 S)-4-(6-Chloro-2-(2-(3,3-Difluoroazetidin-1-Yl)Ethoxy)-8-Fluoro-7-(2-Fluoro-6-Hydroxyphenyl)Quinazolin-4-Yl)-2,5-Dimethylpiperazin-1-Yl)Prop-2-En-1-One], the Binding % result is given as “+++ (+++ indicates binding activity greater than 90%)”.

With `C=CC(=O)N1[C@H](C)CN(c2nc(N3CC(N(C)C)C3)nc3c(F)c(-c4c(C)ccc5[nH]ncc45)c(Cl)cc23)C[C@@H]1C` [Compound 39, 1-((2R,6S)-4-(6-chloro-2-(3-(dimethylamino)azetidin-1-yl)-8-fluoro-7-(5-methyl-1H-indazol-4-yl)quinazolin-4-yl)-2,6-dimethyl-piperazin-1-yl) prop-2-en-1-one], the Binding % result is listed as “++ (++ indicates binding activity from 50 to 90%)”.

Turning to `C=CC(=O)N1C[C@@H](C)N(c2nc(N3CC(N(C)C)C3)nc3c(F)c(-c4c(C)ccc5[nH]ncc45)c(Cl)cc23)[C@@H](C)C1` [Compound 40, 1-((3S,5R)-4-(6-chloro-2-(3-(dimethylamino)azetidin-1-yl)-8-fluoro-7-(5-methyl-1H-indazol-4-yl)quinazolin-4-yl)-3,5-dimethyl-piperazin-1-yl) prop-2-en-1-one], the Binding % result is “++ (++ indicates binding activity from 50 to 90%)”.

As for `C=CC(=O)N1[C@H](C)CN(c2nc(OCCN3CC(F)(F)C3)nc3c(F)c(-c4c(C)ccc5[nH]ncc45)c(Cl)cc23)C[C@@H]1C` [Compound 41, 1-((2R,6S)-4-(6-chloro-2-(2-(3,3-difluoroazetidin-1-yl)ethoxy)-8-fluoro-7-(5-methyl-1H-indazol-4-yl)quinazolin-4-yl)-2,6-dimethyl-piperazin-1-yl) prop-2-en-1-one], the Binding % entry is recorded as “++ (++ indicates binding activity from 50 to 90%)”.

Regarding `C=CC(=O)N1C[C@@H](C)N(c2nc(NC3CCN(C4CC4)CC3)nc3c(F)c(-c4c(C)ccc5[nH]ncc45)c(Cl)cc23)[C@@H](C)C1` [Compound 42, 1-((3S,5R)-4-(6-chloro-2-((1-cyclopropyl-piperidin-4-yl)amino)-8-fluoro-7-(5-methyl-1H-indazol-4-yl)quinazolin-4-yl)-3,5-dimethyl-piperazin-1-yl) prop-2-en-1-one], the Binding % result is listed as “++ (++ indicates binding activity from 50 to 90%)”.

With `C=CC(=O)N1C[C@@H](C)N(c2nc(NC3CCN(C4CC4)CC3)nc3c(F)c(-c4c(C)ccc5cn[nH]c45)c(Cl)cc23)[C@@H](C)C1` [Compound 43, 1-((3S,5R)-4-(6-chloro-2-((1-cyclopropyl-piperidin-4-yl)amino)-8-fluoro-7-(6-methyl-1H-indazol-7-yl)quinazolin-4-yl)-3,5-dimethyl-piperazin-1-yl) prop-2-en-1-one], the Binding % result is given as “++ (++ indicates binding activity from 50 to 90%)”.

Turning to `C=CC(=O)N1C[C@@H](C)N(c2nc(N3CC(N(C)C)C3)nc3c(F)c(-c4c(C)ccc5cn[nH]c45)c(Cl)cc23)[C@@H](C)C1` [Compound 44, 1-((3S,5R)-4-(6-chloro-2-(3-(dimethylamino)azetidin-1-yl)-8-fluoro-7-(6-methyl-1H-indazol-7-yl)quinazolin-4-yl)-3,5-dimethyl-piperazin-1-yl) prop-2-en-1-one], the Binding % entry was “++ (++ indicates binding activity from 50 to 90%)”.

Regarding `C=CC(=O)N1C[C@@H](C)N(c2nc(OCCN3CC(F)(F)C3)nc3c(F)c(-c4c(C)ccc5[nH]ncc45)c(Cl)cc23)[C@@H](C)C1` [Compound 45, 1-((3S,5R)-4-(6-chloro-2-(2-(3,3-difluoroazetidin-1-yl)ethoxy)-8-fluoro-7-(5-methyl-1H-indazol-4-yl)quinazolin-4-yl)-3,5-dimethyl-piperazin-1-yl) prop-2-en-1-one], the Binding % entry was “++ (++ indicates binding activity from 50 to 90%)”.

For the compound `C=CC(=O)N1[C@H](C)CN(c2nc(OCCN(CC)CC)nc3c(F)c(-c4c(C)ccc5[nH]ncc45)c(Cl)cc23)C[C@@H]1C` [Compound 46, 1-((2R,6S)-4-(6-Chloro-2-(2-(Diethylamino)Ethoxy)-8-Fluoro-7-(5-Methyl-1H-Indazol-4-Yl)Quinazolin-4-Yl)-2,6-Dimethylpiperazin-1-Yl)Prop-2-En-1-One], the Binding % result is listed as “++ (++ indicates binding activity from 50 to 90%)”.

On to `C=CC(=O)N1C[C@@H](C)N(c2nc(OCCN3CC(F)(F)C3)nc3c(F)c(-c4c(C)ccc5cn[nH]c45)c(Cl)cc23)[C@@H](C)C1` [Compound 47, 1-((3S,5R)-4-(6-chloro-2-(2-(3,3-difluoroazetidin-1-yl)ethoxy)-8-fluoro-7-(6-methyl-1H-indazol-7-yl)quinazolin-4-yl)-3,5-dimethyl-piperazin-1-yl) prop-2-en-1-one], for which the Binding % result was “++ (++ indicates binding activity from 50 to 90%)”.
